Test results as given in US10590081B2, “Guanidine compounds and use thereof” (ImmunoMet Therapeutics Inc., priority 2015, dated 2020).
Structures can show the parent of a compound that is named as a salt.

How the values were obtained:
SK-MEL-28 cells = assay: Cytotoxicity in low glucose condition (MTT assay); assay type: cell-based; conditions: Homo sapiens, SK-MEL-28, 72 h, 0.75 mM glucose, 72 hours treatment, read-out: SK-MEL-280.75 mM glucose cell viability (IC50 μM)
From the text: Cytotoxicity Assay in Low Glucose Condition
The inhibition of oxidative phosphorylation (OXPHOS) is not cytotoxic to cells in normal glucose condition, because it is postulated that normal cells have compensatory mechanism under energy stress conditions such as low glucose. However OXPHOS inhibitors show cytotoxic effect on cells in the glucose deprived condition (BirsoyK, 2014). The glucose deprived condition is observed in tumor microenvironment potentially due to poor angiogenesis. Therefore the OXPHOS inhibitors may show anti-cancer effect on cancer cells in low glucose condition that may depict tumor microenvironment.
The compounds of the present invention were evaluated their cytotoxicity in SK-MEL-28, melanoma with 0.75 mM glucose supplement. The cytotoxic effect is compared with the cytotoxicity caused by phenformin. The cytotoxicity in low glucose condition is correlated with inhibition of oxygen consumption in mitochondria.
SK-MEL-28 (HTB-72) is a melanoma cell line obtained from ATCC (MA) and cultured in RPMI 1640 media (Lifetechnologies, CA) with supplement of 10% FBS and antibiotic-antimycotic (Lifetechnologies, CA). RPMI 1640 (−Glucose) was used to prepare low glucose media and 0.75 mM glucose was supplied with D-(+)-glucose solution from Sigma. SK-MEL-28 cells were separated from culture plate using 0.5% trypsin-EDTA and 1,250 cells were plated in 96-well plate with low glucose media. After incubation at 37° C. for 24 hour, 5% CO2, the cells were treated with the compounds of present invention in FBS-free media for 72 hours. The cytotoxicity was measured by the MTT (AMRESCO, OH) assay. NADH-dependent cellular oxidoreductase reduces MTT to its insoluble […] with purple color. The enzyme depends on cell number or energy state of cells. 10 μl of 5 mg/ml MTT solution was added to each well of the assay plate and skip the well for blank. The plate was incubated at 37° C. and 5% CO2 for 2 hours. The MTT solution was removed from each well and 100 μl of DMSO was added. The plate was read by VICTOR X3 Multilabel Counter at the wavelength of 550 nm. In Table 2, the levels of IC50 are evaluated by the following criteria.
According to the concentration of compound for killing the half of cell populations (the levels of IC50), the compounds were classified into A, B and C, when the compounds were treated on SK-MEL-28 cells at 0.75 mM glucose.

A549 cells = assay: Test for inhibition of OCR and enhancement of ECAR (XF Analyzer); assay type: cell-based; conditions: Homo sapiens, 24 hrs treatment, oxygen consumption rate
From the text: Measurement of Mitochondrial Complex I Inhibition
The electron transfer complex in mitochondria is composed of 5 complexes. The complex I accept electrons from NADH produced from glycolysis and TCA cycle and the electrons move to complex […] and the electron is finally transferred to O2 and water molecule is generated. During the electron transfer, proton gradient is generated and the chemical gradient is a driving source to synthesize ATP at complex V. The mitochondrial inhibition of complex I indirectly assessed by measuring the oxygen consumption rate (OCR) at complex IV. […] The solution outside of cells becomes acidic (lower pH) as lactate is transported to outside of cells. OCR and Extracellular acidification rate (ECAR) are determined by XF Analyzer (Seahorse Biosciences).
A549 cells were purchased from American Type Tissue Culture Collection (CCL-185™) and cultured in RPMI 1640 supplied with 10% fetal bovine serum (FBS) and antibiotic-antimycotic (Lifetech, CA). A549 cells were separated with 0.5% Trypsin-EDTA and 3,000 cells were plated on 1 mg/ml poly-D-lysine (Sigma, P6407) coated XF 96 well […]. A549 cells were allowed to adhere to the wells for 24 hours under the condition of temperature, 37° C. and 5% CO2. The sensor cartridge of XF Analyzer was soaked in 200 μl of Calibrant solution (Seahorse, MA) in a clear 96-well plate at 37° C. for 24 hours. The compounds of the present invention were diluted with RPMI 1640 without FBS, transferred to A549 cells on XF 96 well plate, and incubated further for 23 hours at 37° C. and 5% CO2. After incubation, the compound solution was exchanged with pre-warmed and pH adjusted (pH7.4) XF assay media (Seahorse) supplied with 15 mM D-glucose (Sigma), 15 mM sodium pyruvate (Lifetechnologies, CA) and 4 mM L-glutamine (Lifetechnologies, CA). The compounds of present invention were prepared in XF Assay media and added to the assay plate. The assay plate was equilibrated in XF Analyzer for 1 hour, and the reading were started by sensor cartridge. The cytotoxicity assay was followed using Cyquant (Lifetechnologies, CA) in order to calibrate the inhibition with cytotoxicity of compounds. The concentrations of the compounds were tested at 0, 0.5, 1, 5, 10 and 20 μM and IC50 value was obtained from the inhibited values. That is, from OCR inhibition values at each concentration of the compound, IC50 was calculated according to Prism's dose response curve fitting.
In Table 1, the levels of OCR IC50 are evaluated by the following.
According to the test results of the compounds, the compounds were classified into A, B and C.

| SMILES | IC50 (A549 cells) | IC50 (SK-MEL-28 cells) |
| --- | --- | --- |
| N=C(NC(=N)N1CCC(F)(F)CC1)Nc1ccccc1 [Example 1, N—(N-phenylcarbamimidoyl)-4,4-difluoropiperidine-1-carboximidamide hydrochloride] | – | > 15 µM |
| N=C(NC(=N)N1CCC(F)(F)CC1)Nc1ccc2c(c1)CCCC2 [Example 2, N—(N-(5,6,7,8-teterhydronaphthalene-2-yl)carbamimidoyl)-4,4-difluoro piperidine-1-carboximidamide hydrochloride] | > 4 µM | 6 to 15 µM |
| N=C(NC(=N)N1CCC(F)(F)CC1)Nc1ccccc1Br [Example 4, N—(N-(2-bromophenyl)carbamimidoyl)-4,4-difluoropiperidine-1-carboximidamide hydrochloride] | – | > 15 µM |
| N=C(NC(=N)N1CCC(F)(F)CC1)Nc1cccc(Oc2ccccc2)c1 [Example 13, N—(N-(3-phenoxyphenyl)carbamimidoyl)-4,4-difluoropiperidine-1-carboximidamide hydrochloride] | 2 to 4 µM | < 6 µM |
| N=C(NC(=N)N1CCC(F)(F)CC1)Nc1ccc(Oc2ccccc2)cc1 [Example 23, N—(N-(4-phenoxyphenyl)carbamimidoyl)-4,4-difluoropiperidine-1-carboximidamide acetate] | 2 to 4 µM | < 6 µM |
| N=C(NC(=N)N1CCC(F)(F)C1)Nc1ccc(Oc2ccccc2)cc1 [Example 28, N—(N-(4-phenoxyphenyl)carbamimidoyl)-3,3-difluoropyrrolidine-1-carboximidamide acetate] | 2 to 4 µM | < 6 µM |
| N=C(NC(=N)N1CCC(F)(F)C1)Nc1cccc(Oc2ccccc2)c1 [Example 29, N—(N-(3-phenoxyphenyl)carbamimidoyl)-3,3-difluoropyrrolidine-1-carboximidamide acetate] | < 2 µM | < 6 µM |
| N=C(NC(=N)N1CCC(F)(F)C1)Nc1ccc(OC(F)(F)F)c(Br)c1 [Example 39, N—(N-(3-bromo-4-(trifluoromethoxy)phenyl)carbamimidoyl)-3,3-difluoropyrrolidine-1-carboximidamide acetate] | 2 to 4 µM | – |
| N=C(NCc1ccccc1Br)NC(=N)N1CCC(F)(F)CC1 [Example 40, N—(N-(2-bromobenzyl)carbamimidoyl)-4,4-difluoropiperidine-1-carboximidamide hydrochloride] | > 4 µM | – |
| N=C(NCc1ccc(Br)cc1)NC(=N)N1CCC(F)(F)CC1 [Example 55, N—(N-(4-bromobenzyl)carbamimidoyl)-4,4-difluoropiperidine-1-carboximidamide acetate] | > 4 µM | – |

Second part, led by results:

| IC50 (A549 cells) | SMILES | IC50 (SK-MEL-28 cells) |
| --- | --- | --- |
| > 4 µM | N=C(NC(=N)N1CCC(F)(F)CC1)Nc1ccc(Cl)c(Cl)c1 [Example 3, N—(N-(3,4-dichlorophenyl)carbamimidoyl)-4,4-difluoropiperidine-1-carboximidamide hydrochloride] | < 6 µM |
| > 4 µM | N=C(NC(=N)N1CCC(F)(F)CC1)Nc1cccc(Br)c1 [Example 5, N—(N-(3-bromophenyl)carbamimidoyl)-4,4-difluoropiperidine-1-carboximidamide hydrochloride] | 6 to 15 µM |
| > 4 µM | N=C(NC(=N)N1CCC(F)(F)CC1)Nc1ccc(Br)cc1 [Example 6, N—(N-(4-bromophenyl)carbamimidoyl)-4,4-difluoropiperidine-1-carboximidamide hydrochloride] | 6 to 15 µM |
| > 4 µM | CSc1ccc(NC(=N)NC(=N)N2CCC(F)(F)CC2)cc1 [Example 8, N—(N-(4-(methythio)phenyl)carbamimidoyl)-4,4-difluoropiperidine-1-carboximidamide hydrochloride] | 6 to 15 µM |
| 2 to 4 µM | N=C(NC(=N)N1CCC(F)(F)CC1)Nc1ccc(SC(F)(F)F)cc1 [Example 9, N—(N-(4-(trifluoromethythio)phenyl)carbamimidoyl)-4,4-difluoro piperidine-1-carboximidamide hydrochloride] | < 6 µM |
| > 4 µM | CC(C)c1ccc(NC(=N)NC(=N)N2CCC(F)(F)CC2)cc1 [Example 10, N—(N-(4-isopropylphenyl)carbamimidoyl)-4,4-difluoropiperidine-1-carboximidamide hydrochloride] | 6 to 15 µM |
| > 4 µM | N=C(NC(=N)N1CCC(F)(F)CC1)Nc1ccc(F)c(Cl)c1 [Example 11, N—(N-(3-chloro-4-fluorophenyl)carbamimidoyl)-4,4-difluoropiperidine-1-carboximidamide hydrochloride] | 6 to 15 µM |
| 2 to 4 µM | N=C(NC(=N)N1CCSC1)Nc1ccc(SC(F)(F)F)cc1 [Example 14, N—(N-(4-(trifluoromethythio)phenyl)carbamimidoyl)thiazolidine-3-carboximidamide hydrochloride] | < 6 µM |
| 2 to 4 µM | N=C(NC(=N)N1CCC(F)(F)CC1)Nc1ccc(OC(F)(F)F)cc1 [Example 17, N—(N-(4-(trifluoromethoxy)phenyl)carbamimidoyl)-4,4-difluoropiperidine-1-carboximidamide acetate] | – |
| 2 to 4 µM | N=C(NC(=N)N1CCC(F)(F)CC1)Nc1ccc(I)c(Cl)c1 [Example 18, N—(N-(3-chloro-4-iodophenyl)carbamimidoyl)-4,4-difluoropiperidine-1-carboximidamide acetate] | – |
| 2 to 4 µM | N=C(NC(=N)N1CCC(F)(F)CC1)Nc1ccc(C(F)(F)F)cc1 [Example 21, N—(N-(4-(trifluoromethyl)phenyl)carbamimidoyl)-4,4-difluoropiperidine-1-carboximidamide acetate] | < 6 µM |
| 2 to 4 µM | N=C(NC(=N)N1CCC(F)(F)CC1)Nc1ccc(I)c(Br)c1 [Example 22, N—(N-(3-bromo-4-iodophenyl)carbamimidoyl)-4,4-difluoropiperidine-1-carboximidamide acetate] | < 6 µM |
| 2 to 4 µM | N=C(NC(=N)N1CCC(F)(F)C1)Nc1ccc(OC(F)(F)F)cc1 [Example 25, N—(N-(4-(trifluoromethoxy)phenyl)carbamimidoyl)-3,3-difluoropyrrolidine-1-carboximidamide acetate] | < 6 µM |
| 2 to 4 µM | N=C(NC(=N)N1CCC(F)(F)CC1)Nc1ccc(Br)c(Br)c1 [Example 26, N—(N-(3,4-dibromophenyl)carbamimidoyl)-4,4-difluoropiperidine-1-carboximidamide acetate] | 6 to 15 µM |
| < 2 µM | N=C(NC(=N)N1CCC(F)(F)CC1)Nc1ccc(OC(F)(F)F)c(F)c1 [Example 27, N—(N-(3-fluoro-4-(trifluoromethoxy)phenyl)carbamimidoyl)-4,4-fluoropiperidine-1-carboximidamide acetate] | < 6 µM |
